Measurements taken from patent US4174396A, “7,10-Dimethyl-5,9-imino-4,5,8,9-tetrahydro-cyclooct[b]thiophenes and a process for obtaining it” (Laboratories Made, S.A., priority 1978, dated 1979).

Experiments:
white Swiss I.C.R. mice = assay: Chemical analgesia, acetic acid writhing technique; type: in vivo; conditions: for No. of writhes x ± S.E.M: 25 mg/kg intraperitoneally, 0.25 ml of 1% acetic acid after 30 minutes, writhes noted 20 minutes after acetic acid, control 130 ± 7.764
Description: The analgesic effect has been studied in white Swiss I.C.R. mice, with the acetic acid writhing technique. Batches of 10 mice were made.
The products under study were administered intraperitoneally, and after 30 minutes 0.25 ml of 1% acetic acid were injected intraperitoneally. A batch of control animals received only the acetic acid. The number of writhes in each mouse were noted 20 minutes after the acetic acid was administered.

albino Swiss I.C.R. mice [1] = assay: Thermal analgesia, 55° C. hot-plate technique; type: in vivo; conditions: for Jumping time in sec. x ± S.E.M.: 50 mg/kg intraperitoneally, 30 minutes after dosing, 55° C. hot-plate, average ± standard error of the mean, control 64 ± 7.911
Description: The thermal analgesic effect has been studied in albino Swiss I.C.R. mice. The 55° C. hot-plate technique has been used. Batches of 10 mice were made.
The products under study were administered intraperitoneally. After 30 minutes the mice were placed on the hot-plate and note was made of the time it took them to jump, in seconds. Batches were made of control animals injected only with distilled water.

[2] = Acute toxicity (LD50, intraperitoneal, Litchfield-Wilcoxen); type: in vivo, albino Swiss I.C.R. mice; conditions: mouse, in vivo, ip, mice, both sexes, deaths noted 48 hours after treatment
Description: (§1) Acute toxicity studies have been made in albino Swiss I.C.R. mice, of both sexes, of a weight of 30±2 g, kept without food for 24 hours prior to the experiment. Temperature and relative humidity of the atmosphere were kept constant. The products were administered intraperitoneally, the number of deaths having been noted 48 hours after treatment. The lethal dose (LD50) was calculated by the Litchfield-Wilcoxen test.

albino Swiss I.C.R. mice [3] = assay: as above; type: in vivo; conditions: both sexes, deaths noted 48 hours after treatment
Description: as §1

CC1=CC2Cc3ccsc3C(C1)N2C (stereo not drawn) [I, 7,10-dimethyl-5,9-imino-4,5,8,9-tetrahydrocyclooct[b]thiophene]
No. of writhes x ± S.E.M (white Swiss I.C.R. mice): 85.3 ± 13.915 | Signif. of differences, Dextropropox. (white Swiss I.C.R. mice; No. of writhes, 25 mg/kg, versus dextropropoxyphene): N.S. | chemical analgesic activity (in words) (white Swiss I.C.R. mice; acetic acid writhing, compared with dextropropoxyphene): shows the same analgesic activity as dextropropoxyphene | Jumping time in sec. x ± S.E.M. (albino Swiss I.C.R. mice [1]): 114.2 ± 11.168 s | thermal analgesic activity (in words) (albino Swiss I.C.R. mice [1]; hot-plate, compared with dextropropoxyphene): shows analgesic activity, but of less potency than that of dextropropoxyphene | LD50 at 48 h [2]: 159 mg/kg

CCC(=O)O[C@](Cc1ccccc1)(c1ccccc1)[C@H](C)CN(C)C [Dextropropoxyphene, reference compound]
No. of writhes x ± S.E.M (white Swiss I.C.R. mice): 68.4 ± 5.258 | Jumping time in sec. x ± S.E.M. (albino Swiss I.C.R. mice [1]): 164 ± 7.319 s | LD50 (albino Swiss I.C.R. mice [3]): 140 mg/kg
